Where “and” joins values, the source holds several entries; their conditions need not be identical. Equal entries are not always repeated.
Legend:
Type in all cases: cell-based, human
[1] = system: non-senescent control IMR90 ER:RAS cells; test: Nuclei count (Hoechst, high content imaging) senolytic assay, OIS model, non-senescent control cells; conditions: for Mean % Cell Survival: mean n=3 (Fig 3C)
Outline: (§1)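 Compared non-senescent and senescent IMR90 ER:RAS cultures (senescence induced with 4-OHT at 100 nM final); cells seeded 24 h before dosing, then exposed 72 h to compounds, 10-point […] range 10 μM–10 nM, triplicate. Fixed, Hoechst-stained, nuclei counted by high-content imaging; drop versus untreated reflects cell death.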

[2] = system: senescent A549 cells (etoposide-induced); test: Nuclei count senolytic assay, therapy-induced senescence (TIS) model, senescent cells; conditions: Senescent cells, mean
Outline: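 A549 cells made senescent with 100 μM etoposide for 48 h then 3 days in normal media; non-senescent A549 as control. Cells were exposed for 72 h to a 10-point […] range (10 μM–10 nM) in triplicate, then fixed, Hoechst-stained and imaged for nuclei count.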

[3] = system: senescent IMR90 ER:RAS cells (4-OHT-induced); test: Nuclei count (Hoechst, high content imaging) senolytic assay, oncogene-induced senescence (OIS) model, senescent cells; conditions: for Mean % Cell Survival: mean n=3 (Fig 3C)
Outline: as §1

Compound: Cc1c(NC(=O)OC[C@@H]2COCCN2)cn2ncnc(Nc3ccc4c(cnn4Cc4cccc(F)c4)c3)c12.Cl.Cl [BMS 599626 2HCL, BMS 599626 dihydrochloride]
- % Cell Survival ([1]; Control cells, log (dose) [M] -5, individual replicates, SUP FIG 4C): 105.353% and 91.3279% and 103.579%
- % Cell Survival ([1]; Control cells, log (dose) [M] -5.33, individual replicates, SUP FIG 4C): 86.7238% and 73.5321% and 81.9018%
- % Cell Survival ([1]; Control cells, log (dose) [M] -5.66, individual replicates, SUP FIG 4C): 118.415% and 87.5339% and 100.613%
- % Cell Survival ([1]; Control cells, log (dose) [M] -6, individual replicates, SUP FIG 4C): 100.107% and 87.4435% and 90.184%
- % Cell Survival ([1]; Control cells, log (dose) [M] -6.33, individual replicates, SUP FIG 4C): 111.884% and 90.2439% and 100.716%
- % Cell Survival ([1]; Control cells, log (dose) [M] -6.66, individual replicates, SUP FIG 4C): 106.852% and 86.4499% and 109.816%
- % Cell Survival ([1]; Control cells, log (dose) [M] -7, individual replicates, SUP FIG 4C): 101.927% and 74.8871% and 92.5358%
- % Cell Survival ([1]; Control cells, log (dose) [M] -7.33, individual replicates, SUP FIG 4C): 103.426% and 89.7922% and 99.3865%
- % Cell Survival ([1]; Control cells, log (dose) [M] -7.66, individual replicates, SUP FIG 4C): 119.807% and 91.5989% and 105.93%
- % Cell Survival ([1]; Control cells, log (dose) [M] -8, individual replicates, SUP FIG 4C): 100.749% and 77.0551% and 102.454%
- Mean % Cell Survival ([1]; Control, log (dose) [M] -5, 72 h): 100.087%
- Mean % Cell Survival ([1]; Control, log (dose) [M] -5.33, 72 h): 80.7192%
- Mean % Cell Survival ([1]; Control, log (dose) [M] -5.66, 72 h): 102.188%
- Mean % Cell Survival ([1]; Control, log (dose) [M] -6, 72 h): 92.5782%
- Mean % Cell Survival ([1]; Control, log (dose) [M] -6.33, 72 h): 100.948%
- Mean % Cell Survival ([1]; Control, log (dose) [M] -6.66, 72 h): 101.039%
- Mean % Cell Survival ([1]; Control, log (dose) [M] -7, 72 h): 89.7834%
- Mean % Cell Survival ([1]; Control, log (dose) [M] -7.33, 72 h): 97.535%
- Mean % Cell Survival ([1]; Control, log (dose) [M] -7.66, 72 h): 105.779%
- Mean % Cell Survival ([1]; Control, log (dose) [M] -8, 72 h): 93.4195%
- % Cell Survival ([1]; Control, log (dose) [M] -5): 100.351% and 111.029% and 102.815%
- % Cell Survival ([1]; Control, log (dose) [M] -5.33): 101.964% and 126.351% and 107.239%
- % Cell Survival ([1]; Control, log (dose) [M] -5.66): 131.276% and 125.833% and 112.534%
- % Cell Survival ([1]; Control, log (dose) [M] -6): 101.823% and 113.768% and 114.812%
- % Cell Survival ([1]; Control, log (dose) [M] -6.33): 107.574% and 113.397% and 102.681%
- % Cell Survival ([1]; Control, log (dose) [M] -6.66): 98.317% and 111.029% and 104.088%
- % Cell Survival ([1]; Control, log (dose) [M] -7): 103.156% and 106.366% and 100.335%
- % Cell Survival ([1]; Control, log (dose) [M] -7.33): 103.086% and 108.882% and 96.7828%
- % Cell Survival ([1]; Control, log (dose) [M] -7.66): 97.5456% and 102.221% and 100.201%
- % Cell Survival ([1]; Control, log (dose) [M] -8): 96.0028% and 99.7779% and 101.072%
- Mean % Cell Survival ([2]; log (dose) [M] -5): 90.7857%
- Mean % Cell Survival ([2]; log (dose) [M] -5.33): 83.9286%
- Mean % Cell Survival ([2]; log (dose) [M] -5.66): 68.2857%
- Mean % Cell Survival ([2]; log (dose) [M] -6): 92.9286%
- Mean % Cell Survival ([2]; log (dose) [M] -6.33): 86.7857%
- Mean % Cell Survival ([2]; log (dose) [M] -6.66): 103.929%
- Mean % Cell Survival ([2]; log (dose) [M] -7): 113.571%
- Mean % Cell Survival ([2]; log (dose) [M] -7.33): 119.214%
- Mean % Cell Survival ([2]; log (dose) [M] -7.66): 109.286%
- Mean % Cell Survival ([2]; log (dose) [M] -8): 117.714%
- % Cell Survival ([3]; Senescent cells, log (dose) [M] -5, individual replicates, SUP FIG 4C): 148.305% and 168.559% and 104.914%
- % Cell Survival ([3]; Senescent cells, log (dose) [M] -5.33, individual replicates, SUP FIG 4C): 96.2712% and 179.476% and 125.714%
- % Cell Survival ([3]; Senescent cells, log (dose) [M] -5.66, individual replicates, SUP FIG 4C): 153.051% and 117.467% and 95.5429%
- % Cell Survival ([3]; Senescent cells, log (dose) [M] -6, individual replicates, SUP FIG 4C): 117.797% and 133.042% and 86.6286%
- % Cell Survival ([3]; Senescent cells, log (dose) [M] -6.33, individual replicates, SUP FIG 4C): 137.458% and 98.5444% and 96.6857%
- % Cell Survival ([3]; Senescent cells, log (dose) [M] -6.66, individual replicates, SUP FIG 4C): 136.441% and 92.5764% and 82.2857%
- % Cell Survival ([3]; Senescent cells, log (dose) [M] -7, individual replicates, SUP FIG 4C): 136.102% and 95.3421% and 94.0571%
- % Cell Survival ([3]; Senescent cells, log (dose) [M] -7.33, individual replicates, SUP FIG 4C): 122.034% and 101.601% and 79.4286%
- % Cell Survival ([3]; Senescent cells, log (dose) [M] -7.66, individual replicates, SUP FIG 4C): 139.831% and 102.475% and 90.8571%
- % Cell Survival ([3]; Senescent cells, log (dose) [M] -8, individual replicates, SUP FIG 4C): 151.017% and 98.69% and 92.6857%
- Mean % Cell Survival ([3]; Senescent, log (dose) [M] -5, 72 h): 140.593%
- Mean % Cell Survival ([3]; Senescent, log (dose) [M] -5.33, 72 h): 133.82%
- Mean % Cell Survival ([3]; Senescent, log (dose) [M] -5.66, 72 h): 122.02%
- Mean % Cell Survival ([3]; Senescent, log (dose) [M] -6, 72 h): 112.489%
- Mean % Cell Survival ([3]; Senescent, log (dose) [M] -6.33, 72 h): 110.896%
- Mean % Cell Survival ([3]; Senescent, log (dose) [M] -6.66, 72 h): 103.768%
- Mean % Cell Survival ([3]; Senescent, log (dose) [M] -7, 72 h): 108.5%
- Mean % Cell Survival ([3]; Senescent, log (dose) [M] -7.33, 72 h): 101.021%
- Mean % Cell Survival ([3]; Senescent, log (dose) [M] -7.66, 72 h): 111.054%
- Mean % Cell Survival ([3]; Senescent, log (dose) [M] -8, 72 h): 114.131%
- % Cell Survival ([3]; Senescent, log (dose) [M] -5): 90.7857%
- % Cell Survival ([3]; Senescent, log (dose) [M] -5.33): 83.9286%
- % Cell Survival ([3]; Senescent, log (dose) [M] -5.66): 68.2857%
- % Cell Survival ([3]; Senescent, log (dose) [M] -6): 92.9286%
- % Cell Survival ([3]; Senescent, log (dose) [M] -6.33): 86.7857%
- % Cell Survival ([3]; Senescent, log (dose) [M] -6.66): 103.929%
- % Cell Survival ([3]; Senescent, log (dose) [M] -7): 113.571%
- % Cell Survival ([3]; Senescent, log (dose) [M] -7.33): 119.214%
- % Cell Survival ([3]; Senescent, log (dose) [M] -7.66): 109.286%
- % Cell Survival ([3]; Senescent, log (dose) [M] -8): 117.714%
